Columns and labels:
[1] = tested on: differentiated C2C12 myotubes; assay: qPCR gene expression in differentiated C2C12 myotubes; assay type: cell-based, mouse; settings: Ric peptides 100 µM, insulin positive control, qPCR normalised to GAPDH, control = 1, mean ± SEM
Description: C2C12 cells were used as a well-described model of skeletal muscle to evaluate the effect of peptides in gene expression, cell signaling, and glucose uptake. These cells were kindly provided by Prof. Patricia Brum, School of Physical Education and Prof. Anselmo Moriscot, Biomedical Science Institute, University of São Paulo, São Paulo, Brazil. C2C12 cells were cultured and maintained in high glucose Dulbecco's modified Eagle's medium (DMEM; Thermo Fisher Scientific, São Paulo, SP, Brazil) supplemented with 10% fetal bovine serum (FBS), 100 U/mL penicillin, and […] streptomycin in a humidified atmosphere of 5% CO2 at 37 °C. The cells were used in low pass (between passages 2 and 4) for all experiments to maintain the potential for differentiation of cultures. Cells grown to approximately 70% confluence in T75 culture flasks were treated with trypsin and seeded in various P100 culture dishes. Cells were then cultured in the presence of 10% FBS until they reach about 90% confluence, at which point the medium was replaced with DMEM containing 2% horse serum for the induction of differentiation in myotubes. During this time, the fused myoblasts formed elongated, multi-nucleated myotubes, and within 7 days more than 95% of the cells already fused into myotubes. Cultures of C2C12 were treated with phosphate buffer saline (137 mM NaCl, 2.7 mM KCl, 10 mM Na2HPO4, and 1.8 mM KH2PO4, pH 7.4; PBS; control), insulin or […], for the indicated period of time. From these treatments the cells were processed for molecular analyses. Real-time PCR (qPCR) experiments were performed to evaluate the mRNA expression levels, at basal and under stimulus, for peroxisome proliferator activator receptor gamma (PPARγ), peroxisome proliferator activator receptor […] responsive element binding protein 1 (Creb1), aldolase A, fructose-bisphosphate (ALDOA), cytochrome c oxidase subunit IV isoform 1 (Cox4i1), phosphoglycerate mutase 2 (PGAM2), troponin I, skeletal, fast 2 (TNNI2), […] (TNNT3), small muscle protein X-linked (SMPX), myosin, […] (MYH1), insulin-growth factor 1 (IGF1), Glucose transporter 4 (GLUT4), and lipoprotein lipase (LPL). Primers sequences are described in Supplementary Materials (Table S1). Cells were homogenized and total RNA extracted using Trizol according to the manufacturer's instructions (TRIzol, Life Technologies, Rockville, MD, USA). After extraction of RNA, all samples were purified and treated with DNAse using RNeasy Mini Kit (Qiagen, Foster City, CA, USA). The integrity of the RNA was verified by 1% agarose gel electrophoresis stained with ethidium bromide and visualized in ultraviolet light. […] The standard curves for all the primers used herein were previously constructed to determine the efficiency of the amplification of the target and reference genes. Quantitative PCRs were performed using the Prism 7900 sequence detection system (Applied Biosystems, Foster City, CA, USA) with 100 nM primer and 20 ng cDNA. The expression of mRNA targets was normalized by expression of gene glyceraldehyde 3-phosphate dehydrogenase (GAPDH) or hipoxantina-guanina fosforibosiltransferase (HPRT) and expressed as relative values using the 2 DDCt method. The expression levels of target genes were normalized with housekeeping genes GAPDH or HPRT, and alterations were expressed relative to control unstimulated cells. […] Therefore, the possible effects of Ric1-Ric4 (100 μM) on gene expression were evaluated. For all these experiments, insulin was used as “gold standard”/positive control, and GAPDH expression was used as normalization control (Table 2, Control “1”/100%). Relative to GAPDH expression, insulin increased the expression of all genes evaluated (Table 1). […]

[2] = tested on: epididymal adipose tissue and tibial skeletal muscle of WT mice; assay: mRNA expression of energy metabolism genes in tissues after ip administration (qPCR); assay type: in vivo, mouse; settings: 600 µg/kg ip
Description: Real-time PCR (qPCR) experiments were performed to evaluate the mRNA expression levels, at basal and under stimulus, for peroxisome proliferator activator receptor gamma (PPARγ), peroxisome proliferator activator receptor alpha (PPARa), cAMP responsive element binding protein 1 (Creb1), aldolase A, fructose-bisphosphate (ALDOA), cytochrome c oxidase subunit IV isoform 1 (Cox4i1), phosphoglycerate mutase 2 (PGAM2), troponin I, skeletal, fast 2 (TNNI2), […] (TNNT3), small muscle protein X-linked (SMPX), myosin, […] (MYH1), insulin-growth factor 1 (IGF1), Glucose transporter 4 (GLUT4), and lipoprotein lipase (LPL). Primers sequences are described in Supplementary Materials (Table S1). […] Quantitative PCRs were performed using the Prism 7900 sequence detection system (Applied Biosystems, Foster City, CA, USA) with 100 nM primer and 20 ng cDNA. The expression of mRNA targets was normalized by expression of gene glyceraldehyde 3-phosphate dehydrogenase (GAPDH) or hipoxantina-guanina fosforibosiltransferase (HPRT) and expressed as relative values using the 2 DDCt method. […]
Figure 6 Ric4 stimulated mRNA expression levels of genes related to energy metabolism. WT mice were treated with vehicle (Control) or Ric4 (600 ug/kg, ip) and gene expression was evaluated by qPCR. […]

in vitro = in vitro ADME, mouse; settings: WT mice liver or kidney crude extracts; fragments sequenced by mass spectrometry after HPLC; data not shown
Description: Peptide hydrolyses were analyzed by reverse phase liquid chromatography (HPLC) using a C18 µBond-pak column (4.6 × 250 mm; Millipore Corp.) with a linear gradient of 5–65% acetonitrile in 0.1% TFA for 20 min at a flow rate of 1 mL/min, and absorbance monitored at a wavelength of 214 nm, as previously described. Cleaved peptide bonds were identified by mass spectrometry sequencing after isolating the cleavage fragments manually after HPLC, as previously described (data not shown). Control enzyme assays were conducted using bradykinin ([…]; 50 µM) as a standard substrate.

| Substance | relative expression of Aldolase A, fructose-bisphosphate (ALDOA) [1] | relative expression of Cytochrome c oxidase subunit IV isoform 1 (Cox4i1) [1] | relative expression of Peroxisome proliferator activator receptor gamma (PPARγ) [1] | relative expression of Phosphoglycerate mutase 2 (PGAM2) [1] | relative expression of Small muscle protein X-linked (SMPX) [1] | relative expression of Troponin I, skeletal, fast 2 (TNNI2) [1] | relative expression of Troponin I, skeletal, fast 3 (TNNT3) [1] | relative expression of cAMP responsive element binding protein 1 (Creb1) [1] | GLUT4 mRNA levels in epididymal adipose tissue [2] | expression levels of genes related to energy metabolism in epididymal adipose tissue (LPL, PPARγ, PPARa, GLUT4, IGF1) [2] | initial enzymatic cleavage site (in vitro) |
| --- | --- | --- | --- | --- | --- | --- | --- | --- | --- | --- | --- |
| Insulin | 7.65 ± 0.96 | 6.71 ± 1.24 | 6.98 ± 1.23 | 8.26 ± 0.99 | 5.96 ± 0.98 | 6.36 ± 1.13 | 6.22 ± 0.98 | 6.48 ± 1.08 | – | – | – |
| LASVSTVLTSKYR [Ric4, intracellular peptide derived from hemoglobin alpha subunit, last 13 C-terminal amino acids] | 4.22 ± 0.74 | 1.41 ± 1.12 | 1.21 ± 1.02 | 2.65 ± 0.87 | 3.21 ± 0.99 | 3.14 ± 0.65 | 2.38 ± 0.72 | 1.03 ± 0.85 | increased | stimulated the expression levels | Leu8-Thr9 peptide bond |

From paper PMC8708875 (Pharmaceutics, 2021)
